Laboratory results as given in ChEMBL document CHEMBL3227989, “Coenzyme--substrate adducts as inhibitors of mouse liver 3,4-dihydroxyphenylalanine decarboxylase” (J Med Chem, 1979).
Values belong to the molecule of their own block, whether it stands above or below them.

Experiments:
[1] = biological target: T1, Aromatic-L-amino-acid decarboxylase (Mus musculus, UniProt O88533); test: Inhibition of ICR Swiss mouse liver dopa decarboxylase after 15 mins
T1 sequence (O88533 whole entry): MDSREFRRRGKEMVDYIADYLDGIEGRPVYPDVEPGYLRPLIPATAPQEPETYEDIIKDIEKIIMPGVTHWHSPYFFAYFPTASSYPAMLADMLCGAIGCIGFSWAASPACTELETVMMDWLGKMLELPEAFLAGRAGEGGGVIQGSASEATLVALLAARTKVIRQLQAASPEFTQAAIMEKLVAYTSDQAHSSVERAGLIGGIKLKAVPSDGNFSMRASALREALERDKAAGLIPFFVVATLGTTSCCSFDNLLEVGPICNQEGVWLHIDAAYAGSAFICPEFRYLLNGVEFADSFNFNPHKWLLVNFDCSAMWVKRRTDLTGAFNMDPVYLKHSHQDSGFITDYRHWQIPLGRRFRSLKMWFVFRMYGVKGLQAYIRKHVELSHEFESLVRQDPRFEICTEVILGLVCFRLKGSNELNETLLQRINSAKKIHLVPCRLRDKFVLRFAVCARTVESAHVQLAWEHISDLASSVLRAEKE

[2] = biological target: T2, Aromatic-L-amino-acid decarboxylase (Mus musculus) (UniProt O88533); test: Inhibition of ICR Swiss mouse liver dopa decarboxylase at 2 X 10^-5 M after 15 mins
T2 sequence (whole entry): T1 sequence (O88533 whole entry)

[3] = biological target: T2, Aromatic-L-amino-acid decarboxylase (Mus musculus); test: Inhibition of ICR Swiss mouse liver dopa decarboxylase at 10^-4 M after 15 mins
[4] = biological target: T2, Aromatic-L-amino-acid decarboxylase (Mus musculus); test: Inhibition of ICR Swiss mouse liver dopa decarboxylase at 10^-5 M after 15 mins
[5] = biological target: T2, Aromatic-L-amino-acid decarboxylase (Mus musculus); test: Inhibition of ICR Swiss mouse liver dopa decarboxylase at 10^-3 M after 15 mins
[6] = biological target: T2, Aromatic-L-amino-acid decarboxylase (Mus musculus); test: Inhibition of ICR Swiss mouse liver dopa decarboxylase at 2 X 10^-3 M after 15 mins
[7] = biological target: T2, Aromatic-L-amino-acid decarboxylase (Mus musculus); test: Inhibition of ICR Swiss mouse liver dopa decarboxylase at 2 X 10^-4 M after 15 mins
[8] = compound: Cc1ncc(COP(=O)(O)O)c(CN[C@@H](Cc2ccc(O)c(O)c2)C(=O)O)c1O; test: Inhibition of pig liver dopa decarboxylase; settings: Sus scrofa

Molecule: Cc1ncc(COP(=O)(O)O)c(CN[C@@H](Cc2ccc(O)c(O)c2)C(=O)O)c1O
IC50 [1]: 10 µM

Molecule: Cc1ncc(COP(=O)(O)O)c(CNC(Cc2ccc(O)c(O)c2)C(=O)O)c1O (racemic)
inhibition [2]: 63%

Molecule: Cc1ncc(COP(=O)(O)O)c(CN[C@@H](Cc2ccccc2)C(=O)O)c1O
inhibition [3]: 57%
inhibition [4]: 17%
inhibition [5]: 83%
inhibition [6]: 85%

Molecule: Cc1ncc(COP(=O)(O)O)c(CN[C@@H](Cc2ccc(O)cc2)C(=O)O)c1O
IC50 [1]: 70 µM

B1: Aromatic-L-amino-acid decarboxylase (Sus scrofa), P80041 (protein)
chain: MNASDFRRRGKEMVDYMADYLEGIEGRQVYPDVQPGYLRPLIPATAPQEPDTFEDILQDVEKIIMPGVTHWHSPYFFAYFPTASSYPAMLADMLCGAIGCIGFSWAASPACTELETVMMDWLGKMLQLPEAFLAGEAGEGGGVIQGSASEATLVALLAARTKVVRRLQAASPGLTQGAVLEKLVAYASDQAHSSVERAGLIGGVKLKAIPSDGKFAMRASALQEALERDKAAGLIPFFVVATLGTTSCCSFDNLLEVGPICHEEDIWLHVDAAYAGSAFICPEFRHLLNGVEFADSFNFNPHKWLLVNFDCSAMWVKRRTDLTGAFKLDPVYLKHSHQGSGLITDYRHWQLPLGRRFRSLKMWFVFRMYGVKGLQAYIRKHVQLSHEFEAFVLQDPRFEVCAEVTLGLVCFRLKGSDGLNEALLERINSARKIHLVPCRLRGQFVLRFAICSRKVESGHVRLAWEHIRGLAAELLAAEEGKAEIKS
Km [8]: 190 µM

The remaining lines, values ahead:

inhibition [2]: 53%
inhibition [6]: 62%
Molecule: Cc1ncc(COP(=O)(O)O)c(CNC(Cc2ccccc2O)C(=O)O)c1O (racemic)

inhibition [7]: 15%
inhibition [6]: 50%
Molecule: Cc1cnc(C)c(O)c1CNC(Cc1ccc(O)c(O)c1)C(=O)O (racemic)

inhibition [5]: < 10%
Molecule: Cc1ncc(COP(=O)(O)O)c(C2NC(C(=O)O)Cc3cc(O)c(O)cc32)c1O (racemic)
